Experimental data from the NIST ThermoML archive (doi:10.1021/je900641w).
± gives the expanded uncertainty stated by the source.

Conditions: 1000 kPa, Liquid, Coaxial cylinder method

| thermal conductivity (302.75 K) | thermal conductivity (332.54 K) | thermal conductivity (362.39 K) | thermal conductivity (392.16 K) | SMILES |
| --- | --- | --- | --- | --- |
| 0.1461 ± 0.0065 W/m/K | 0.1324 ± 0.0059 W/m/K | 0.1205 ± 0.0054 W/m/K | 0.1076 ± 0.0048 W/m/K | COCCOCCOC [2,5,8-trioxanonane] |
| 0.1242 ± 0.0056 W/m/K | 0.1169 ± 0.0052 W/m/K | 0.1085 ± 0.0049 W/m/K | 0.099 ± 0.0045 W/m/K | COCC(C)OCC(C)OC (centres undefined) [2-methoxy-1-(2-methoxy-1-methylethoxy)propane] |
| 0.1409 ± 0.0037 W/m/K | 0.1304 ± 0.0035 W/m/K | 0.1194 ± 0.0032 W/m/K | 0.1098 ± 0.003 W/m/K | c1ccccc1 [benzene] |

The next lines start with the compound.

| SMILES | thermal conductivity (302.75 K) | thermal conductivity (332.54 K) | thermal conductivity (362.39 K) | thermal conductivity (392.16 K) |
| --- | --- | --- | --- | --- |
| COCCOC [1,2-dimethoxyethane] | 0.1605 ± 0.0071 W/m/K | 0.1452 ± 0.0064 W/m/K | 0.1317 ± 0.0059 W/m/K | 0.1183 ± 0.0053 W/m/K |
| COCCOCCOCCOCCOC [2,5,8,11,14-pentaoxapentadecane] | 0.1469 ± 0.0065 W/m/K | 0.1407 ± 0.0063 W/m/K | 0.1345 ± 0.006 W/m/K | 0.1274 ± 0.0057 W/m/K |
| COCCOCCOCCOC [2,5,8,11-tetraoxadodecane] | 0.1433 ± 0.0064 W/m/K | 0.137 ± 0.0061 W/m/K | 0.1303 ± 0.0058 W/m/K | 0.1227 ± 0.0055 W/m/K |
